System: soil urease
Experiment: Efficacy test: urease inhibition in soil (urea remaining after incubation)
Format: biochemical
Details: 800 micrograms test compound and 42.8 mg urea per 20 g air-dry soil, incubated at 25° C. for three days, run in triplicate
Procedure: Efficacy tests were conducted to evaluate the efficacy of certain representative oximated O-diaminophosphinyl compounds as urease inhibitors. The inhibition tests were run in a New York soil (Cazenovia silt loam, pH 7.2) or in Wisconsin soil (Plano silt loam, pH 5.4). Evaluations (run in triplicate) consisted of applying 800 micrograms of the test compound in 5 mL of water and 42.8 mg of urea in 1 mL of water to 20 g of air-dry soil in a glass bottle. The bottle was capped with perforated aluminum foil and incubated at 25° C. for three days prior to extraction with 100 mL of a 2M potassium chloride solution containing 0.5 mg of phenylmercuric acetate. The extracts were then analyzed for remaining urea using an autoanalyzer. Percent inhibition was calculated as [formula] where A is urea recovered from unincubated sample (urea added to soil and immediately extracted); B is urea recovered from inhibited sample; and C is urea recovered from the control (uninhibited sample).

SMILES: CC(C)=NOP(N)(N)=O [O--(Diaminophosphinyl)-2-propanone Oxime, O-(Diaminophosphinyl)-2-propanone Oxime]
- % Inhibition, Cazenovia (pH 7.2) (New York soil (Cazenovia silt loam, pH 7.2)): 84%
- % Inhibition, Wisconsin (pH 5.4) (Wisconsin soil (Plano silt loam, pH 5.4)): 53%

From patent US4624695A, “O-diaminophosphinyl derivatives of oximes as urease inhibitors” (Allied Corporation, priority 1983, dated 1986)
